Measurements reported in paper PMC11031590, “Narazaciclib, a novel multi-kinase inhibitor with potent activity against CSF1R, FLT3 and CDK6, shows strong anti-AML activity in defined preclinical models” (Scientific Reports, 2024).
Where “and” joins values, the source holds several entries; their conditions need not be identical. Identical values can stand only once. Like-named read-outs stand apart in the source and are kept apart here.

How the values were obtained:
[1] = Single-dose oral pharmacokinetics in non-tumor bearing mice; type: in vivo; conditions: female, NOD/scid; for CL/F: read-out: CL_F (converted)
Protocol: In order to understand the effective anti-AML exposure of narazaciclib in mice, we conducted a preliminary pharmacokinetic (PK) analysis of a single-dose oral administration of narazaciclib, at the same dose levels as in anti-AML pharmacology study above, in non-tumor bearing mice. Following a single oral administration of narazaciclib at either 30 mg/kg or 100 mg/kg in mice, plasma samples were collected at various timepoints. The plasma concentrations of narazaciclib were analyzed by LC–MS. […] In addition, narazaciclib undergoes relatively fast elimination from plasma with a T1/2 of 2.77 h for narazaciclib at 100 mg/kg or 1.92 h at 30 mg/kg.
Noncompartmental analyses (NCA) were performed using WinNonlinTM Phoenix, version XXX software (Pharsight, Cary, NC) to estimate the PK parameters including T1/2, elimination half-life; Tmax, Time to peak drug concentration; Cmax, maximum concentration; AUC0-∞, area under the plasma concentration–time curve from zero to infinity; AUC0-t, area under the plasma concentration–time curve from zero to the time of the last quantifiable time-point; CL_F, total body clearance; Vz-F, total volume of distribution. Following a single oral administration of narazaciclib at either 100 mg/kg or 30 mg/kg in female NOD/scid mice (N = 3), plasma samples were collected from 3 mice at each timepoint (pre-dose, 1h, 2h, 4h, 8h, 12h and24hpost administration) and analyzed by LC–MS.

AM8096 AML-PDX = test: AM8096 systemic AML-PDX model; type: in vivo, NOD/scid mice
Protocol: (§1) For systemic AML-PDX models, the model establishment and narazaciclib pharmacology experiment were performed essentially as described previously. Briefly, 2 × 10^6 AM7407 cells, or 2 × 10^6 AM7577 cells, or 2 × 10^6 AM5512 cells, or 1.65 × 10^6 AM8096 cells were inoculated intravenously into 4- to 5-week-old female NOD/scid mice for AML development. Engraftment was confirmed by the presence of circulating human CD45+ cells (anti-human CD45 antibody, Cat. 304038, Biolegend) in peripheral blood. Mice with successful engraftment of AML-PDX were randomized into different treatment groups (N = 6) and received their designated treatments. Narazaciclib was administrated orally or intraperitoneally at 10 mg/kg, or 30 mg/kg, or 100 mg/kg every day throughout the study, while Cytarabine was administrated intraperitoneally at 3 mg/kg every day. Following the initiation of designated treatments, leukemic burden was monitored by flow cytometry with anti-human CD45 antibody on the peripheral blood every week as well as on the peripheral blood, bone marrow cells and splenocytes of mice at sacrifice. Mice were sacrifice once the followings are observed: body weight loss over 20%, reduced motility and activity, labored breathing, ruffled coat, hunched back and severe dehydration.

Ba/F3-FLT3-ITD (Y842H) = Ba/F3-FLT3-ITD (Y842H) proliferation assay; type: cell-based, mouse
Protocol: (§2) The recombinant Ba/F3 cell lines overexpressing human CSF1R, or human RBM6-CSF1R, or human ETV6-CSF1R were generated using a retrovirus vector (Kyinno Co., Ltd. Beijing). The recombinant Ba/F3 lines overexpressing human Kras G12C orEGFR-L718Q mutants, and different mutant variants of FLT3 were also similarly created as well. A standard proliferation assay via CTG readout was performed according to the vendor’s instructions (KYinno Biotechnology Co., Ltd. Beijing).

Ba/F3-FLT3-ITD (D835Y) = Ba/F3-FLT3-ITD (D835Y) proliferation assay; type: cell-based, mouse
Protocol: as §2

AM7407 AML-PDX = test: AM7407 systemic AML-PDX model; type: in vivo, NOD/scid mice; conditions: AM7407, 100 mg/kg orally every day
Protocol: as §1

Ba/F3-FLT3-ITD (F691L) = Ba/F3-FLT3-ITD (F691L) proliferation assay; type: cell-based, mouse
Protocol: as §2

[2] = test system: MV-4-11 subcutaneous xenograft; test: MV-4-11 subcutaneous xenograft model; type: in vivo, NOD/scid mice; conditions: narazaciclib 100 mg/kg intraperitoneally twice per week for 3 weeks
Description: The subcutaneous cell line xenograft (CDX) models and systemic patient-derived xenograft (PDX) models of AML have been extensively described before. For the subcutaneous MV-4-11 CDX model, 5 × 10^6 MV-4-11 tumor cells harvested from exponential growth phase were mixed with Matrigel (1:1) and then inoculated into the right front flank region of 6- to 7-week-old female NOD/scid mice for tumor development. MV-4-11 tumor-bearing mice were randomized into 5 groups (N = 8) when their tumor volume reached approximately 100 mm^3 and received their designated treatments following randomization. Narazaciclib was administrated intraperitoneally at 100 mg/kg twice per week for 3 weeks, while Azacitidine was administrated intraperitoneally at 3 mg/kg twice per week for 3 weeks. For the subcutaneous Ba/F3-ETV6-CSF1R CDX model, 1 × 10^6 Ba/F3-ETV6-CSF1R tumor cells harvested from exponential growth phase were mixed with Matrigel (1:1) and then inoculated into the right front flank region of 6- to 8-week-old female NOD/scid mice for tumor development. Ba/F3-ETV6-CSF1R tumor-bearing mice were randomized into 5 groups (N = 6) when their tumor volume reached approximately 100 mm^3 and received their designated treatments following randomization. […] Tumor volume and body weight were measured at different time points and tumor growth inhibition (TGI) was used as index to determine the therapeutic efficacy.

Ba/F3-CSF1R cell line = test: Ba/F3-CSF1R proliferation assay (CTG); type: cell-based, mouse
Protocol: as §2

CSF1R = CSF1R (Homo sapiens, UniProt P07333); test: CSF1R kinase inhibition assay; type: biochemical; conditions: read-out: IC50 CSF1R enzymatic activity
Protocol: For CSF1R inhibition, TK-substrate-biotin and ATP were incubated at room temperature for 40 min, followed by adding different concentrations of […] and TK-antibody-Cryptate into each well of the assay plate and incubation at room temperature for 1 h. The fluorescence signal was read at 615 nm (Cryptate) and 665 nm (XL665) on an Envision 2104 plate reader.

[3] = 30 mg/kg single oral, mouse plasma
[4] = 100 mg/kg single oral, mouse plasma

Chain of CSF1R (P07333 20-972): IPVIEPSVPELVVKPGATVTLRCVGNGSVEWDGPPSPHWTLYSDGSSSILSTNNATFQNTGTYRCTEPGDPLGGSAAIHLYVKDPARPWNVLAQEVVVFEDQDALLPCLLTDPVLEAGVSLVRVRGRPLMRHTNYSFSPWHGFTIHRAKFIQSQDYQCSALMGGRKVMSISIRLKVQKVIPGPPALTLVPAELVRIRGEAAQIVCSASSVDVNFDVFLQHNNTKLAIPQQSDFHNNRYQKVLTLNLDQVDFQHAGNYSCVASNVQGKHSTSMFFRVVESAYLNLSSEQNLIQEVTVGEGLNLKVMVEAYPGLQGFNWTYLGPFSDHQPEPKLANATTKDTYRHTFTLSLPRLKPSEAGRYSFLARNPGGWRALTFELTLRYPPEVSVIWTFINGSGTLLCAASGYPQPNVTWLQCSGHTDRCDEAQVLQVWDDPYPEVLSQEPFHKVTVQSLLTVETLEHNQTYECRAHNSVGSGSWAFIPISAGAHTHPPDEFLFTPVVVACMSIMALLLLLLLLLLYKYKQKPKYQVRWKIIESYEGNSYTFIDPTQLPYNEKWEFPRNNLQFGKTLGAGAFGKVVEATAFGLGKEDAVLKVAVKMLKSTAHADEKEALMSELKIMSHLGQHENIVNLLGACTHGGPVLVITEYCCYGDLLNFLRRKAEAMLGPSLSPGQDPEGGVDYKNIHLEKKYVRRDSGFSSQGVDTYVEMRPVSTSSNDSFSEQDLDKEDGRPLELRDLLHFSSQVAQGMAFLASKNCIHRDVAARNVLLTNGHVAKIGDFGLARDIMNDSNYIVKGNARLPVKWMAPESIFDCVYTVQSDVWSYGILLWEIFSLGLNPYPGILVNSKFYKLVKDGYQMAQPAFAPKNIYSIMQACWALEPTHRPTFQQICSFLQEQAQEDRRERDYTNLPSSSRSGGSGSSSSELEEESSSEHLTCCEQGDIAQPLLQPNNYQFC

CN1CCN(c2ccc(Nc3ncc4cc(C#N)c(=O)n(C5CCCC5)c4n3)cc2)CC1 [Narazaciclib, narazaciclib]
AUC(0-inf) ([1]; mouse, plasma, oral, corresponding to 100 mg/kg dose level, read-out: efficacious exposure for anti-AML in mice in terms of AUC0~∞): < 8190 ng·h/mL | Cmax ([1]; mouse, plasma, oral, corresponding to 100 mg/kg dose level, read-out: efficacious exposure for anti-AML in mice in terms of Cmax): < 1460 ng/mL | AUC(0-t) [1, 3]: 1040 ng·h/mL | Tmax [1, 3]: 1 h | half-life [1, 3]: 1.92 h | AUC(0-inf) ([1]; 30 mg/kg single oral, mouse plasma, read-out: AUC0-∞): 1200 ng·h/mL | CL/F [1, 3]: 415 mL/min/kg | Cmax ([1]; 30 mg/kg single oral, mouse plasma, read-out: Cmax): 469 ng/mL | AUC(0-t) [1, 4]: 8190 ng·h/mL | Tmax [1, 4]: 2 h | half-life [1, 4]: 2.77 h | AUC(0-inf) ([1]; 100 mg/kg single oral, mouse plasma, read-out: AUC0-∞): 8210 ng·h/mL | CL/F [1, 4]: 203 mL/min/kg | Cmax ([1]; 100 mg/kg single oral, mouse plasma, read-out: Cmax): 1460 ng/mL | leukemic load in peripheral blood, spleen and bone marrow (AM8096 AML-PDX; AM8096): reduce the leukemic load in peripheral blood and spleen, but also the leukemic load in bone marrow | leukemic burdens, dose dependence (AM8096 AML-PDX; AM8096, different dose levels): reduced the leukemic burdens in a dose-dependent manner | response of model (AM8096 AML-PDX; AM8096, narazaciclib 100 mg/kg intraperitoneally every day): responded completely | % of Ba/F3-FLT3 (IC50) (Ba/F3-FLT3-ITD (Y842H)): 11.20% | IC50 (Ba/F3-FLT3-ITD (Y842H); Mus musculus): 33.7 nM | % of Ba/F3-FLT3 (IC50) (Ba/F3-FLT3-ITD (D835Y)): 20.19% | IC50 (Ba/F3-FLT3-ITD (D835Y); Mus musculus): 60.8 nM | response of model (AM7407 AML-PDX): did not respond | % of Ba/F3-FLT3 (IC50) (Ba/F3-FLT3-ITD (F691L)): 53.85% | IC50 (Ba/F3-FLT3-ITD (F691L); Mus musculus): 162 nM | anti-AML activity (tumor growth) [2]: significant anti-AML activity | times more potent than GW2580 (Ba/F3-CSF1R cell line; Ba/F3-CSF1R in the presence of CSF1): 16 times | IC50 (Ba/F3-CSF1R cell line; Mus musculus, + 100 ng/ml CSF-1): ~3.54 nM | IC50 (CSF1R): ~0.285 nM and 0.29 nM
